Source: the supplement of paper PMC10307832

Tests used:
Experiment in all cases: relative viability (nuclei count vs DMSO), 5 days (fraction); higher = more cells survive
Sulindac + Tozasertib = compound: CC1=C(CC(=O)O)c2cc(F)ccc2/C1=C\c1ccc([S+](C)[O-])cc1 [Sulindac] + Cc1cc(Nc2cc(N3CCN(C)CC3)nc(Sc3ccc(NC(=O)C4CC4)cc3)n2)n[nH]1 [Tozasertib] (partner 0.1 µM)
How it was run: (§1)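 Each reported value is a median over duplicate plates. It expresses relative viability: treated-well nuclei count divided by vehicle-well nuclei count. Lung cancer cell lines in 1536-well plates were dosed by pin tool a day after seeding, alone with one drug or with a fixed anchor-drug dose plus five library-drug doses (not always all listed) in √10 steps, and nuclei were counted after 5 days.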

[1] = compound: CN[C@@H]1C[C@H]2O[C@@](C)([C@@H]1OC)n1c3ccccc3c3c4c(c5c6ccccc6n2c5c31)C(=O)NC4 [Staurosporine] + C[C@]1(O)C[C@@H](c2nc(-c3ccc4ccc(-c5ccccc5)nc4c3)c3c(N)nccn32)C1 [Linsitinib] (partner 1 µM)
How it was run: as §1

Sulindac + Vorinostat = compound: CC1=C(CC(=O)O)c2cc(F)ccc2/C1=C\c1ccc([S+](C)[O-])cc1 [Sulindac] + O=C(CCCCCCC(=O)Nc1ccccc1)NO [Vorinostat] (partner 1 µM)
How it was run: as §1

[2] = compound: O=c1[nH]cc(F)c(=O)[nH]1 [5-Fluorouracil] + N=C(N)NC(=N)NCCc1ccccc1 [Phenformin] (partner 250 µM)
How it was run: as §1

Cell Line	relative viability (Sulindac + Tozasertib; first compound 0.08 µM)	relative viability (Sulindac + Tozasertib; first compound 0.253 µM)	relative viability (Sulindac + Tozasertib; first compound 0.8 µM)	relative viability (Sulindac + Tozasertib; first compound 2.53 µM)	relative viability (Sulindac + Tozasertib; first compound 8 µM)	relative viability ([1]; first compound 0.005 µM)	relative viability ([1]; first compound 0.01581 µM)	relative viability ([1]; first compound 0.05 µM)	relative viability ([1]; first compound 0.1581 µM)	relative viability ([1]; first compound 0.5 µM)	relative viability (Sulindac + Vorinostat; first compound 0.08 µM)	relative viability (Sulindac + Vorinostat; first compound 0.253 µM)	relative viability (Sulindac + Vorinostat; first compound 0.8 µM)	relative viability (Sulindac + Vorinostat; first compound 2.53 µM)	relative viability (Sulindac + Vorinostat; first compound 8 µM)	relative viability ([2]; first compound 0.02 µM)	relative viability ([2]; first compound 0.2 µM)	relative viability ([2]; first compound 0.6325 µM)	relative viability ([2]; first compound 2 µM)
NCI-H1755	0.52	0.586	0.573	0.593	0.694	0.856	0.595	0.283	0.18	0.171	0.751	0.772	0.754	0.77	0.753	0.667	0.598	0.364	0.256
NCI-H1793	0.283	0.283	0.349	0.33	0.336	0.879	0.558	0.582	0.465	0.209	0.726	0.716	–	0.637	0.68	0.467	0.476	0.42	0.266
NCI-H1915	0.505	0.451	–	0.423	0.416	1.11	–	0.61	0.486	0.342	0.555	0.577	0.508	0.539	0.574	–	0.34	0.355	0.361
NCI-H1944	0.258	0.263	0.254	0.247	0.259	1.39	–	0.696	0.472	0.367	0.604	0.62	0.506	0.574	0.571	0.195	0.208	0.157	0.135
NCI-H1975	0.888	0.825	0.927	0.722	1.15	0.323	0.229	–	0.139	0.124	0.804	0.737	0.634	0.738	0.77	0.385	0.357	0.266	0.194
NCI-H1993	0.597	0.629	0.514	0.651	0.598	0.761	0.634	0.605	0.439	0.55	0.861	0.668	0.663	0.779	0.764	0.538	0.514	0.494	0.459
NCI-H2009	0.883	0.809	0.712	0.707	0.99	0.681	0.269	0.216	0.18	0.116	0.84	0.84	0.748	0.649	0.81	0.551	0.548	0.438	0.401
NCI-H2023	0.558	0.365	0.322	0.3	0.41	0.419	0.17	0.197	0.122	0.0751	0.945	0.879	0.582	0.652	0.685	0.448	0.181	0.102	0.0896
NCI-H2085	0.789	0.842	0.829	0.797	0.807	0.745	0.502	0.541	0.38	0.337	0.728	0.814	0.77	0.652	0.818	0.577	0.844	0.761	0.68
NCI-H2087	0.237	0.284	–	0.293	0.233	0.71	0.712	0.356	0.296	0.153	1.02	0.622	0.561	0.662	0.722	0.49	0.555	0.438	0.333
NCI-H2126	0.887	0.905	0.895	0.754	0.934	0.797	0.553	0.461	0.376	0.366	0.902	0.79	0.721	0.715	0.839	0.411	0.331	0.314	0.287
NCI-H2228	0.222	0.248	0.242	0.294	0.262	0.608	0.483	0.141	0.183	0.113	0.588	0.831	0.497	0.981	0.865	0.408	0.249	0.259	0.249
NCI-H2347	0.522	0.615	–	0.528	0.598	0.899	0.732	0.402	0.446	0.351	0.668	0.702	0.46	0.713	0.593	0.296	0.489	0.24	0.328
NCI-H2405	0.733	0.795	0.684	0.793	0.751	0.214	0.127	0.113	0.0901	0.0874	1.08	1.04	0.923	0.971	1.28	0.394	0.409	0.34	0.369
NCI-H3122	0.4	0.469	0.377	0.352	0.466	1.11	0.561	0.874	0.544	0.247	0.98	0.752	0.762	0.964	1.13	0.366	0.349	0.21	0.174
PC-3 [JPC-3]	0.982	0.984	0.828	0.868	0.878	0.986	–	0.723	0.559	0.478	0.839	0.786	0.647	0.778	0.967	0.48	0.476	0.496	0.45
PC-14	0.605	0.659	0.538	0.575	0.685	0.892	0.633	0.0982	0.0802	0.0859	0.873	0.9	0.629	0.645	0.855	0.572	0.682	0.558	0.585
